Measurements as given in patent publication US20200323882A1, “PHLIP®-MEDIATED TARGETING OF CORTICOSTEROIDS TO DISEASED TISSUE” (priority 2019, published 2020).
Like-named read-outs stand apart in the source and are kept apart here.

Tests used:
[1] = system: MCP-1 (monocyte chemoattractant protein)
Method: CD-1 male mouse, 6 to 7 weeks and 32-38 grams from Charles River Labs were used in the study. […] Briefly, mice were allowed optimal inhalation and passive gravitational flow of LPS directly to the lungs. 50 μg (in 50 μl) LPS was instilled into the nares in five boluses of 10 μl each. […] For processing, a mammalian protease inhibitor cocktail (diluted 1:100 in PBS) was added to each lung sample. Lungs were homogenized by Beadbeater with 2 mm zirconia beads for 1.5 minutes. Homogenates were spun at 10K for 10 minutes at 4° C., and supernatants collected for analysis. Quantikine kit (R&D Systems) assays for JE/MCP-1 were performed as per kit protocols. For the lungs samples, MCP-1 content was expressed as pg/mg of protein. Protein measurements were performed by Pierce™ BCA Protein Assay Kit according to the protocol provided by a manufacturer.

[2] = system: oxazolone-induced contact hypersensitivity; conditions: 24 hrs after oxazolone challenge; pHLIP-Dexa 4.6 mg/kg i.p. vs Dexa 0.46 mg/kg i.p. and 20 mg/kg orally
Method: CD-1 male mouse, 8 to 10 weeks from Charles River Labs were used in the study. Contact hypersensitivity was induced by sensitization and challenge with oxazalone as follows: on day 1, mice are sensitized to oxazalone by application (50 μL; 3% in 100% ethanol) to the abdominal area (previously shaved) and to each footpad (5 μL). On day 6, mice were exposed to oxazalone (20 μL; 1% in 100% ethanol) by application to each side of right ear. Twenty-four hrs after challenge (day 7), dermatitis severity was measured using a visual scale: 0—no evidence of erythema or swelling; 1—mild swelling; 2—mild erythema and moderate selling; 3—erythema and severe swelling. Ear thickness was measured using a micrometer once, prior to sensitization on day 1 (baseline) and once, after dosing on day 7 of the study.

RPMI 8226 myeloma cells = conditions: 5 μM pHLIP-Dexa, 2 hrs without FBS, viability after 22 hours
Method: Myeloma cancer cells were loaded in the wells (30,000 cells/well) and incubated overnight. […] Cell viability was assessed after 22 hours using the colorimetric CellTiter 96 AQueous One Solution Cell Proliferation Assay by absorption measurement at 490 nm.

With pHLIP-(PEG4)-dexamethasone [pHLIP-Dexa] the “reduction of level of MCP-1 protein” value ([1]; dose 4.6 mg/kg in PBS/5% DMSO, 30 minutes after LPS) was “very effective in reducing level of MCP-1 protein”, the “reduction of level of MCP-1 protein” value ([1]; high dose 11.4 mg/kg in PBS/5% DMSO) was “less effective” and the “decrease of thickness of animal ear” value [2] was “as effective as high and low doses of Dexa”. For the same substance, the “reduction of inflammation (dermatitis severity, scale 0 to 3)” value [2] was “as effective as high and low doses of Dexa” and the “myeloma cancer cell viability, pHLIP-Dexa alone” value (RPMI 8226 myeloma cells) was “induced myeloma cancer cells death”.
